This is an account of results in patent US20240390377A1, “COMPOSITION FOR THE PREVENTION OR TREATMENT OF NEURODEGENERATIVE OR MOTOR NEURON DISEASES COMPRISING HALOFUGINONE AS AN ACTIVE INGREDIENT” (CURAMYS CO., LTD., priority 2022, published 2024).

Each structure is given as a SMILES string.

For assay [1], the system named is C2C12 cells. Nature of the assay: Real-time qRT-PCR analysis of C2C12 myoblasts (TGF-β1 stimulation, halofuginone treatment). The format is cell-based, mouse. Conditions: low (5 ng/ml) or high (10 ng/ml) concentration halofuginone, 24 h (FIG. 4a). The procedure: Specifically, C2C12 cells (CRL-1772) were purchased from the American Type Culture Collection (ATCC) and maintained in DMEM medium (Welgene) containing 10% (v/v) fetal bovine serum (FBS; Gibco) and 1% penicillin-streptomycin (P/S; Gibco) at 37° C. under 5% CO2 conditions. The C2C12 cells were seeded in 6-well plates at a density of 3×10^5 cells per well and allowed to adhere for 24 hours. Subsequently, the medium was replaced with serum-free medium after 24 hours, followed by stimulation with 5 ng/ml rhTGF-β1 (recombinant human TGF-β1; R&D Systems). After stimulation, the cells were treated with various concentrations (0 [control], or 1, 2.5, 5 [low dose], 10 [high dose], 20, 50, 100 ng/ml) of halofuginone (Sigma) in serum-free medium for 24 hours.
(§1) Specifically, total RNA was isolated from C2C12 cells in Example 1, fibroblasts in Example 5, and the lumbar spinal cord of mice in Example 6 using the FavorPrep™ Tri-RNA Reagent (Favorgen). The lumbar spinal cord was isolated from the mouse in Example 6 and stored frozen at −80° C. until the experiment. The concentration of total RNA was measured at 260 nm absorbance using a spectrophotometer (NanoDrop Spectrophotometer ND-2000, Thermo Scientific). cDNA was synthesized from 1 μg of total RNA using the ReverTra Ace-α™ (Toyobo) according to the manufacturers protocol. Quantitative RT-PCR was performed using the SYBR Green ExcelTaq™ 2× Fast Q-PCR Master Mix (TQ1200, Smobio) on a thermocycler (CFX Connect Real-Time PCR Detection System, BIO-RAD) with the primers listed in Table 3 below. Fluorescence data were analyzed with Bio-Rad CFX Manager 3.1 software, and control versus relative mRNA expression was calculated by the 2AT) method. Experiments were performed four times on all samples. All primers were designed using Primer3 online software, and GAPDH was used as a control group.
Specifically, after treating C2C12 cells with TGF-β1 for 24 hours as in Example 1, real-time qRT-PCR was performed in the same manner as in Example 11 to confirm TGF-β1, 2 and 3, α-SMA and MyoD mRNA expression (FIG. 2a), and Western blot analysis was performed in the same manner as in Example 12 to confirm autocrine expression of TGF-β1 and MyoD protein and α-SMA (FIG. 2b).
Specifically, as in Example 1, C2C12 cells were stimulated with TGF-β1 for 24 hours, and then halofuginone was treated for 24 hours, and real-time qRT-PCR was performed in the same manner as in Example 11 to confirm TGF-β1, α-SMA, MyoD, and collagen I (Col-I) mRNA expression (FIG. 4a). In addition, Western blot analysis was performed in the same manner as in Example 12 to confirm TGF-β1, α-SMA, MyoD, and collagen I protein expression (FIG. 4b). In addition, immunocytochemical analysis was performed in the same manner as in Example 3 to confirm α-SMA and MyoD expression (FIG. 4c).
(In general: Quantitative PCR measures a nucleic acid by following its amplification.)

Assay [2] deals with C2C12 cells. Nature of the assay: Immunocytochemical analysis of TGF-β1-stimulated C2C12 myoblasts. The format is cell-based, mouse. Conditions: low or high concentration halofuginone after TGF-β1 stimulation (FIG. 4c). How it is done: Specifically, C2C12 cells were plated in 6-well plates with coverslips and stimulated with rhTGF-β1 in serum-free medium. After 24 hours of stimulation, the cells were treated with low or high concentrations of halofuginone in serum-free medium for 24 hours. The cells were washed three times with PBS and fixed in 4% paraformaldehyde at room temperature for 15 minutes. The fixed cells were then washed three times with PBS and treated with 0.5% Triton X-100 for 5 minutes. Subsequently, they were blocked with 5% bovine serum albumin in 0.3% PBS-T for 1 hour at room temperature. The cells were incubated with anti-α-SMA antibody (1:200; abcam cat #ab7817) and anti-MyoD antibody (1:200; Santa Cruz, cat #sc377460) in blocking buffer at 4° C. for 24 hours. After washing three times with PBS, the cells were incubated with Alexa Fluor secondary antibodies at room temperature for 1 hour. Nuclear DNA was stained with DAPI (4,6-diamino-2-phenylindole, 1:1,000; Sigma), washed twice with PBS, and coverslips were mounted on glass slides using a Dako fluorescence mounting medium (Dako). […] In addition, it was quantified in a blind manner using Leica Application Suite X software (Leica Microsystems). […]

For assay [3], the system named is G93A mutant SOD1 transgenic mice. Nature of the assay: Real-time qRT-PCR analysis of lumbar spinal cord in ALS animal model. The format is in vivo, mouse. The procedure: As a control group, non-transgenic mice were injected intraperitoneally (i.p.) with vehicle (DMSO) in the same manner for the same period of time.
as §1
In addition, to investigate the motor neuron source of the spinal cord, motor neurons of the lumbar spinal cord were observed and counted in the same manner as described in Example 9 (FIG. 9d), and real-time qRT-PCR and Western blot analysis were performed in the same manner as described in Example 11 and Example 12 to quantitatively analyze the expression of ChAT mRNA (FIG. 9e) and ChAT protein (FIG. 9f).
Specifically, Halofuginone was administered to G93A mutant SOD1 mice in the same manner as described in <Example 6>, and lumbar spinal cord was isolated after 120 days of age of mice were sacrificed. Then, mRNA expression of inflammation-related factors and neuronal cell death-related factors of CNS was confirmed by performing real-time qRT-PCT analysis in the same manner as in Example 11 (FIG. 11a), and protein expression of neuronal cell death-related factors was confirmed by performing Western blot analysis in the same manner as in Example 12 (FIG. 11b). Since the role (inflammatory or anti-inflammatory effect) differs according to the M1 or M2 subtype of microglia, the expression of M1 marker (iNOS, CD86), M2 marker (arginase 1) and pro-inflammatory factors (IFN-a, TNF-a, IL-1b, and IL-6) were confirmed as factors related to inflammation of CNS. In addition, the expression of caspase-3, bax, and bcl-2 was confirmed as factors related to neuronal apoptosis.

Take `O=C(C[C@H]1NCCC[C@@H]1O)Cn1cnc2cc(Br)c(Cl)cc2c1=O` (racemic) [halofuginone]: in the assay on C2C12 cells [1], the “decrease in MyoD mRNA level by TGF-β1 stimulation” value is recorded as “significantly recovered”, the “increase in TGF-β1 mRNA level by TGF-β1 stimulation” value was “significantly reduced”, the “increase in collagen I mRNA level by TGF-β1 stimulation” value is listed as “significantly reduced” and the “increase in α-SMA mRNA level by TGF-β1 stimulation” value is “significantly reduced”. Moreover, in the assay on C2C12 cells [2], the “intensity of MyoD (immunofluorescence)” value is reported as “recovery” and the “intensity of α-SMA (immunofluorescence)” value is on record as “reduction”. Further, the “mRNA level of ChAT in lumbar spinal cord” value in assay [3] (120-day-old mice, compared to DMSO Non-TG group (FIG. 9e)) is reported as “preserved similarly”. Besides, in assay [3] (120 days of age (FIG. 11a)), the “increase in mRNA levels of M1 markers (iNOS, CD86) in lumbar spinal cord” value is given as “inhibited” and the “increase in mRNA levels of proinflammatory factors (IFN-a, TNF-a, IL-1b, IL-6) in lumbar spinal cord” value is listed as “inhibited”. Besides, the “mRNA level of bcl-2 in lumbar spinal cord” value in assay [3] (120 days of age, decreased in DMSO TG group (FIG. 11a)) is given as “preserved”.
